# Laboratory results: ChEMBL document CHEMBL5291721, “A preclinical secondary pharmacology resource illuminates target-adverse drug reaction associations of marketed drugs” (Nat Commun, 2023)
# Assays:
# [1] = molecular target: T1, Equilibrative nucleoside transporter 1 (Homo sapiens, UniProt Q99808)
# T1 sequence (Q99808 whole entry): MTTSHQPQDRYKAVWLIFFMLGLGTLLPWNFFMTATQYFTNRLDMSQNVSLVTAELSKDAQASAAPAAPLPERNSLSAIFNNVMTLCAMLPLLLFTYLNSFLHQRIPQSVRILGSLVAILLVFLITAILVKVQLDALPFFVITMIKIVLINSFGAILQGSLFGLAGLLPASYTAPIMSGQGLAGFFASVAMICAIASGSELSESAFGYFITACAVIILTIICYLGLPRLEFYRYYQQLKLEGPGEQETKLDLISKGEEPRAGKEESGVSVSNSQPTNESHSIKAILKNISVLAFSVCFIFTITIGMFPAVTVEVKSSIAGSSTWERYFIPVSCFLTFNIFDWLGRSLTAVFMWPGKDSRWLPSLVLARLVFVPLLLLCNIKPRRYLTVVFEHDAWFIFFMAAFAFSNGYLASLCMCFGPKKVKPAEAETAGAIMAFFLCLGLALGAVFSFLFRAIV
# [2] = molecular target: T2, Amine oxidase [flavin-containing] A (Homo sapiens, UniProt P21397); type: functional
# T2 sequence (P21397 whole entry): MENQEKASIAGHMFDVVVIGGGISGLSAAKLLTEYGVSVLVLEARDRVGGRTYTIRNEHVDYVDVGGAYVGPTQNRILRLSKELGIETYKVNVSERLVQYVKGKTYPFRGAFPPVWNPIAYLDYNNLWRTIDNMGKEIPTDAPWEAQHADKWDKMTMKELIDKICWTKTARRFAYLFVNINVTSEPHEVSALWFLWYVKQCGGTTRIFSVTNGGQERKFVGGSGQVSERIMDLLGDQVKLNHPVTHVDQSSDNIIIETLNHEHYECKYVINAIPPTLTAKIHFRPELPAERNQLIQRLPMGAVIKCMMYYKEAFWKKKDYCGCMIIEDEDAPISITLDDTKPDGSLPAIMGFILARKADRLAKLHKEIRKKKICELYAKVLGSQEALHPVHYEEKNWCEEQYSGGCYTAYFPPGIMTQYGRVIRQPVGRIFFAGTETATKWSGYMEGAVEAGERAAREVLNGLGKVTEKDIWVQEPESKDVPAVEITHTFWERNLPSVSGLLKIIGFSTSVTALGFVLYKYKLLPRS
# [3] = molecular target: Sodium-dependent noradrenaline transporter (Homo sapiens, UniProt P23975)
# Chain of Sodium-dependent noradrenaline transporter (P23975 whole entry): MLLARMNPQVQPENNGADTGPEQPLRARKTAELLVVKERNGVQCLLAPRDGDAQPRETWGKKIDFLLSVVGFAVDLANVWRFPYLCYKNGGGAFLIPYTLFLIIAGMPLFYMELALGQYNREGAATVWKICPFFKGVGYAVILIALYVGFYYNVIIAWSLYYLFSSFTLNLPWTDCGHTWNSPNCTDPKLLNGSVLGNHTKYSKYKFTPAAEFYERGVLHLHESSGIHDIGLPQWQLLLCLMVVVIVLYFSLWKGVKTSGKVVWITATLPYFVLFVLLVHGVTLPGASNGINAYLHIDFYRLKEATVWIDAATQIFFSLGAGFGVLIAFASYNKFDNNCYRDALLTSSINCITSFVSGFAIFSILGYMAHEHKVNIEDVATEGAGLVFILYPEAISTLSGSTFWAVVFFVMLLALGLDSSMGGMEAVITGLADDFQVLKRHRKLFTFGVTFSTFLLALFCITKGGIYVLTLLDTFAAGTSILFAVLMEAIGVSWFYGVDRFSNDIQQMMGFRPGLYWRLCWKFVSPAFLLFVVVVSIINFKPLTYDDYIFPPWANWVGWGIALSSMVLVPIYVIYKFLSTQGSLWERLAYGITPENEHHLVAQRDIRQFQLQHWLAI
# [4] = molecular target: T3, 5-hydroxytryptamine receptor 1A (Homo sapiens, UniProt P08908); type: functional, cell-based
# T3 sequence (P08908 whole entry): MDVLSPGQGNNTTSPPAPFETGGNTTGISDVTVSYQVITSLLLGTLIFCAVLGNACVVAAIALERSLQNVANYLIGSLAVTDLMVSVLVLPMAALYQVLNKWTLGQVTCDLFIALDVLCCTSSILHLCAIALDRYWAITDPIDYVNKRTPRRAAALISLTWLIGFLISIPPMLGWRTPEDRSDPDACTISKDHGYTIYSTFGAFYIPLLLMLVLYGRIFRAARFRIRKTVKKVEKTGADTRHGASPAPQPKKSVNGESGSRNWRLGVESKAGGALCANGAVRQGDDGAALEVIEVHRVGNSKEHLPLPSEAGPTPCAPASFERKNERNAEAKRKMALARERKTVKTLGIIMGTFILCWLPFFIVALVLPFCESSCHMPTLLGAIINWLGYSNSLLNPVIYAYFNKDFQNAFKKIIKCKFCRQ
# [5] = molecular target: T4, Type-1 angiotensin II receptor (Homo sapiens, UniProt P30556)
# T4 sequence (P30556 whole entry): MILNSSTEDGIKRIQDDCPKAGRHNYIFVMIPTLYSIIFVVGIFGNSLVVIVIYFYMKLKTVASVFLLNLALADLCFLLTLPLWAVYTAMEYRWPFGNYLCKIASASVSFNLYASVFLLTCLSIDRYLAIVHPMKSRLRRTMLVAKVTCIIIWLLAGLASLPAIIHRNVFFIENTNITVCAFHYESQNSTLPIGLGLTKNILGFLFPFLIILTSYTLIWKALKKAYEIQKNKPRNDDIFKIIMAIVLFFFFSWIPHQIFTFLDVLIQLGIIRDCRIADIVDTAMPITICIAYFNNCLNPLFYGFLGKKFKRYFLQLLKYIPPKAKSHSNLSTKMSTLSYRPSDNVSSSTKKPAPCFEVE
# [6] = molecular target: Gamma-aminobutyric acid receptor subunit alpha-1 (Rattus norvegicus, UniProt P62813); type: functional
# Chain of Gamma-aminobutyric acid receptor subunit alpha-1 (P62813 whole entry): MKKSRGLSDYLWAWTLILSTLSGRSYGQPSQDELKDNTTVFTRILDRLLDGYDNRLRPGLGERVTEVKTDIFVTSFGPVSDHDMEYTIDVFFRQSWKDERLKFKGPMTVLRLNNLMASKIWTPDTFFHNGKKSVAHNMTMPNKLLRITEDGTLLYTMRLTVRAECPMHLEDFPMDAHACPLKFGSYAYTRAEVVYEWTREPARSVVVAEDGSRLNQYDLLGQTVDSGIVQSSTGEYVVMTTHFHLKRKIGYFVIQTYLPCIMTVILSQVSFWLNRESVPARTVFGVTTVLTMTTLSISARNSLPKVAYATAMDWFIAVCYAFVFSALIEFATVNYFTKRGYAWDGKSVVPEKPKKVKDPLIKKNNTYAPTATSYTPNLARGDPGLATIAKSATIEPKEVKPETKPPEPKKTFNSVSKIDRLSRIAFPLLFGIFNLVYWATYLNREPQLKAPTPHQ
# [7] = molecular target: Neuronal acetylcholine receptor subunit alpha-4 (Homo sapiens, UniProt P43681)
# Chain of Neuronal acetylcholine receptor subunit alpha-4 (P43681 whole entry): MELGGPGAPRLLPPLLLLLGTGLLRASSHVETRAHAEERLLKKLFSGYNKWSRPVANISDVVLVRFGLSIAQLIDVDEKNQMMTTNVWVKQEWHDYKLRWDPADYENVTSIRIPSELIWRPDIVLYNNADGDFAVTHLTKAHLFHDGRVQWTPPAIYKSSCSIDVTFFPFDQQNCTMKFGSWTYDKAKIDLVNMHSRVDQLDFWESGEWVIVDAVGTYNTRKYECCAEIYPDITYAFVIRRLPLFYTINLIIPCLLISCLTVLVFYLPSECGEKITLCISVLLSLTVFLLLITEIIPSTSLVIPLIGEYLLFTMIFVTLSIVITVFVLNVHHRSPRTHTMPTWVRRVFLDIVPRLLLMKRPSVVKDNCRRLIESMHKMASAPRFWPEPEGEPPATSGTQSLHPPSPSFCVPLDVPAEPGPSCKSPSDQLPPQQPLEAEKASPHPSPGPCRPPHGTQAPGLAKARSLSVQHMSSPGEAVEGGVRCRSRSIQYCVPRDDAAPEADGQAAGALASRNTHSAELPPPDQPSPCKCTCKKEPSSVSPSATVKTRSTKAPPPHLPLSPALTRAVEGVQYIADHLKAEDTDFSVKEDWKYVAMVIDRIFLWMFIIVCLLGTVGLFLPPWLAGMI
# Adenosine receptor A2a = Adenosine receptor A2a (Homo sapiens, UniProt P29274)
# Chain of Adenosine receptor A2a (P29274 whole entry): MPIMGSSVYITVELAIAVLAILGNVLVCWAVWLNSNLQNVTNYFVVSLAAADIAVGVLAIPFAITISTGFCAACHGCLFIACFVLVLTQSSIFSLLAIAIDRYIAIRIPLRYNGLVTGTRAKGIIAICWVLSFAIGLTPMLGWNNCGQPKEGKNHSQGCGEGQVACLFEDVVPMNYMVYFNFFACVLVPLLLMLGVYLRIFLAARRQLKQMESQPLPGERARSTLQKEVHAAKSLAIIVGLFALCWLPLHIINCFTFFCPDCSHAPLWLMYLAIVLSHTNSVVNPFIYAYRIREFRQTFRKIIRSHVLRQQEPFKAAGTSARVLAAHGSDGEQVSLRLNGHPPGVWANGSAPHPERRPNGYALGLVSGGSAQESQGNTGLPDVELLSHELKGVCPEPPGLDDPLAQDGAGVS
# D(3) dopamine receptor = D(3) dopamine receptor (Homo sapiens, UniProt P35462)
# Chain of D(3) dopamine receptor (P35462 whole entry): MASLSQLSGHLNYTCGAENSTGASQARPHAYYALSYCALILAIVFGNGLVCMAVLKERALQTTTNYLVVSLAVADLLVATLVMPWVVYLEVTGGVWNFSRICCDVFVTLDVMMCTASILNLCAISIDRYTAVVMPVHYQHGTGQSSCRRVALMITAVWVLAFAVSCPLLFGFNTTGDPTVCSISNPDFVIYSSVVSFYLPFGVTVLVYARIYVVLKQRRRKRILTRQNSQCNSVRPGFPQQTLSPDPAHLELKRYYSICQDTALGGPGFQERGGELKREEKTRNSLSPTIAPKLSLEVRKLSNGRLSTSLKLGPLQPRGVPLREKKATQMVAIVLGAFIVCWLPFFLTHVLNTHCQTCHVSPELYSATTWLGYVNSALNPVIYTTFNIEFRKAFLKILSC
# [8] = molecular target: T5, Alpha-2C adrenergic receptor (Homo sapiens, UniProt P18825); type: functional
# T5 sequence (P18825 whole entry): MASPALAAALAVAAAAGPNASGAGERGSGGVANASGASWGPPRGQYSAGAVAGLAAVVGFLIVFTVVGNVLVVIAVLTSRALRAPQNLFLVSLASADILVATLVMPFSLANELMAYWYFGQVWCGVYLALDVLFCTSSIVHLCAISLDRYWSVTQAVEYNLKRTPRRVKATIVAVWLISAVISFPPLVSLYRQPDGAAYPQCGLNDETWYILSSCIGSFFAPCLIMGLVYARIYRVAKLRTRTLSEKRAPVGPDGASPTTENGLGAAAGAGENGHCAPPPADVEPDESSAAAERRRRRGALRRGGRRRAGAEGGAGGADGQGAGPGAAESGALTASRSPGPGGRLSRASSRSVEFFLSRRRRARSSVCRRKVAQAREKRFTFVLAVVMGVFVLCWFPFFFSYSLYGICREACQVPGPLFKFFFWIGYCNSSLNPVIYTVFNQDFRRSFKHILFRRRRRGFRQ
# Further: assay procedure not described here.
SMILES,AC50 [1] [µM],AC50 [2] [µM],AC50 [3] [µM],AC50 [4] [µM],AC50 [5] [µM],AC50 [6] [µM],AC50 [7] [µM],AC50 (Adenosine receptor A2a) [µM],AC50 (D(3) dopamine receptor) [µM],AC50 [8] [µM]
CCOCC(O)COc1ccc(NC(=O)CC[S+](C)C)cc1 (centres undefined),> 30,> 30,> 30,> 30,> 30,> 30,> 30,> 30,> 30,> 30
CCOC(=O)[C@H](CCc1ccccc1)N[C@@H](C)C(=O)N1Cc2ccccc2C[C@H]1C(=O)O,> 30,> 10,> 10,> 10,> 30,> 10,> 10,> 30,> 10,> 10
CCC[C@@]1(CCc2ccccc2)CC(O)=C([C@H](CC)c2cccc(NS(=O)(=O)c3ccc(C(F)(F)F)cn3)c2)C(=O)O1,> 30,> 30,> 30,> 30,11,> 30,> 30,> 30,> 30,25
C=CC1=C(C(=O)O)N2C(=O)[C@@H](NC(=O)/C(=N\O)c3csc(N)n3)[C@H]2SC1,> 30,> 10,> 30,> 10,> 30,> 10,> 10,> 30,> 30,> 10
O=C(O)COC(=O)Cc1ccccc1Nc1c(Cl)cccc1Cl [ACECLOFENAC],> 30,> 10,> 30,> 10,> 30,> 10,> 10,> 30,> 30,> 10
CN(C)CCc1c[nH]c2ccc(CS(=O)(=O)N3CCCC3)cc12 [ALMOTRIPTAN],> 30,> 30,> 30,25,> 30,> 30,> 30,> 30,> 30,> 30
CC[N+](CC)(CCNC(=O)C(=O)NCC[N+](CC)(CC)Cc1ccccc1Cl)Cc1ccccc1Cl [AMBENONIUM],,> 30,10,> 30,> 30,> 30,> 30,> 30,> 30,2.5
NCCCNCCSP(=O)(O)O [AMIFOSTINE],,> 30,> 30,> 30,> 30,> 30,> 30,> 30,> 30,> 30
CN(C)CCC=C1c2ccccc2CCc2ccccc21 [AMITRIPTYLINE],> 30,> 10,,> 10,1.4,> 10,> 30,> 30,0.44,0.29
CN1CC2c3ccccc3Oc3ccc(Cl)cc3C2C1 (centres undefined) [ASENAPINE],> 30,> 30,17,> 10,> 30,,> 30,> 30,0.0044,0.3
CC(C)NCC(O)COc1ccc(CC(N)=O)cc1 (centres undefined) [ATENOLOL],> 30,> 30,> 30,> 30,> 30,,> 30,> 30,> 30,> 30
O=C(Cc1cccs1)N[C@@H]1C(=O)N2C(C(=O)[O-])=C(C[n+]3ccccc3)CS[C@H]12 [CEPHALORIDINE],,> 30,,> 30,,> 30,,,> 30,> 30
CN(C)CCCC1(c2ccc(F)cc2)OCc2cc(C#N)ccc21 (centres undefined) [CITALOPRAM],> 30,> 10,,> 10,> 30,> 10,,> 30,,> 10
CC(C)/N=c1\cc2n(-c3ccc(Cl)cc3)c3ccccc3nc-2cc1Nc1ccc(Cl)cc1 [CLOFAZIMINE],,> 30,> 30,> 30,> 30,20,> 30,> 30,> 30,13
O=c1[nH]cc(F)c(=O)[nH]1 [FLUOROURACIL],> 30,,> 30,,> 30,,> 30,> 30,,
CCN(CCO)CCCC(C)Nc1ccnc2cc(Cl)ccc12 (centres undefined) [HYDROXYCHLOROQUINE],> 10,> 10,> 10,> 10,> 10,> 10,> 10,> 10,> 30,
C[C@@H](O)[C@H]1C(=O)N2C(C(=O)O)=C(SCCN=CN)C[C@H]12 [IMIPENEM ANHYDROUS],> 300,> 300,> 300,> 300,> 300,,> 300,> 300,> 300,> 300
CC(=O)NC[C@H]1CN(c2ccc(N3CCOCC3)c(F)c2)C(=O)O1 [LINEZOLID],> 30,> 30,,> 30,> 30,> 30,> 30,> 30,> 30,> 30
O=C1[C@@H]2[C@H]3CC[C@H](C3)[C@@H]2C(=O)N1C[C@@H]1CCCC[C@H]1CN1CCN(c2nsc3ccccc23)CC1 [LURASIDONE],> 30,> 30,> 30,,> 30,> 30,> 10,> 30,0.43,1.1
C#CCN(C)Cc1ccccc1 [PARGYLINE],,,,> 30,,> 30,,,,> 30
c1cnc2cc3c(cc2n1)[C@@H]1CNC[C@H]3C1 [VARENICLINE],> 30,> 30,> 30,> 30,> 30,> 30,,> 30,> 30,> 30
